Target: dihydropteroate synthase (DHPS, FolP1) (Mycobacterium tuberculosis, UniProt P9WND1)
Format: biochemical

dihydropteroate synthase (DHPS, FolP1), sequence (P9WND1 whole entry): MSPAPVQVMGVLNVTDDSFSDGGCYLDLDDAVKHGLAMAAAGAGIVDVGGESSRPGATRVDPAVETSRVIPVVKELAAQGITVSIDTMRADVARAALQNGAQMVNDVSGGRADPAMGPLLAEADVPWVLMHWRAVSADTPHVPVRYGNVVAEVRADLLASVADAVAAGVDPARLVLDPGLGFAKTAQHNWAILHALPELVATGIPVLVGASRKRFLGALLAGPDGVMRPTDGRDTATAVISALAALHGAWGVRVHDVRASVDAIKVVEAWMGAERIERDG

Structure (SMILES): Nc1ccc(C(=O)O)c(O)c1 [PAS, para-aminosalicylic acid]
- in vitro turnover assay with purified recombinant enzyme: purified recombinant enzymes confirmed that PAS was a kinetically and chemically competent substrate for M. tuberculosis FolP1
